In patent publication US11498923B2 (Merck Sharp & Dohme Corp., priority 2017, dated 2022):
Where a name gives a salt, the structure may show the parent alone.

Molecular target: T1, human A2a receptor (Homo sapiens, UniProt P29274)
T1 construct: purchased Perkin-Elmer RBHA2AM400UA; host or cells: HEK293 cells, used as a membrane preparation
Assay: A2a receptor competition binding assay (Scintillation Proximity)
Settings: A2a Ki, membranes from HEK293 cells expressing human A2a receptor; 0.5 nM tritiated ligand; Cheng-Prusoff
Outline: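 HEK293 membranes bearing the human receptor, pretreated with adenosine deaminase, competed against 0.5 nM tritiated pyrazolotriazolopyrimidine antagonist with compound at 3000–0.15 nM final in DPBS plus 10 mM MgCl2. SPA bead readout after 1 h at room temperature; Ki from EC50 via Cheng-Prusoff.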

T1 sequence (P29274 whole entry): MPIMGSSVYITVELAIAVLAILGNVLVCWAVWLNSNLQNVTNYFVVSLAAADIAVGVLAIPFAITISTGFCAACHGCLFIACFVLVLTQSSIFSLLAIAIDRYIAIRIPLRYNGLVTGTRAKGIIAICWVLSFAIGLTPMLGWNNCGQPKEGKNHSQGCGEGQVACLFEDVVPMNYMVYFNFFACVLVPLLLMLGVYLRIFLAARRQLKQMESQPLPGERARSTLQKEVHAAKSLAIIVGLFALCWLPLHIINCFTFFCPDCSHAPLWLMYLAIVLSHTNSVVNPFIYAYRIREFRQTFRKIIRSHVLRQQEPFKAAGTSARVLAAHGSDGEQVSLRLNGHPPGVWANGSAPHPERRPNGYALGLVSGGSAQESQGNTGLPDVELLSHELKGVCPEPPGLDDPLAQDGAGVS

SMILES | Ki [nM]
COc1cccc2c1nc(N)n1cc(C(=O)N3C4CCCC3CC4)nc21 [Ex-208, (5-amino-7-methoxyimidazo[1,2-c]quinazolin-2-yl)(8-azabicyclo[3.2.1]octan-8-yl)methanone] | 3.2
COc1cccc2c1nc(N)n1cc(C(=O)N3C4CCC3CC4)nc21 [Ex-218, (5-amino-7-methoxyimidazo[1,2-c]quinazolin-2-yl)((1s,4s)-7-azabicyclo[2.2.1]heptan-7-yl)methanone] | 6.1

Same assay, conditions: membranes from HEK293 cells expressing human A2a receptor; 0.5 nM tritiated ligand; Cheng-Prusoff; read-out: A2a Ki

SMILES | Ki [nM]
Nc1nc2c(F)cccc2c2nc(CN3CCOCC3)cn12 [Ex-115, 7-fluoro-2-(morpholinomethyl) imidazo[1,2-c] quinazolin-5-amine] | 380
COc1cccc2c1nc(N)n1cc(Cc3cccc(-c4ccccc4)c3)nc21 [Ex-24, 2-([1,1′-biphenyl]-3-ylmethyl)-7-methoxyimidazo[1,2-c]quinazolin-5-amine] | 10
COc1cccc(OCc2cn3c(N)nc4c(F)cccc4c3n2)c1 [Ex-147] | 54
COc1cccc2c1nc(N)n1cc(CN3CCN4CCCC[C@@H]4C3)nc21 [Ex-132, (R)-7-methoxy-2-((octahydro-2H-pyrido[1,2-a]pyrazin-2-yl)methyl)imidazo[1,2-c]quinazolin-5-amine] | 150
Nc1nc2ccccc2c2nc(Cc3cccc4cccnc34)cn12 [Ex-15, 2-(quinolin-8-ylmethyl)imidazo[1,2-c]quinazolin-5-amine] | 2
Nc1nc2c(F)cccc2c2nc(Cc3cc(F)ccc3-c3cncnc3)cn12 [Ex-81, 7-fluoro-2-(5-fluoro-2-(pyrimidin-5-yl)benzyl)imidazo[1,2-c]quinazolin-5-amine] | 14
Cn1c(NC(=O)c2ccc(Cc3cn4c(N)nc5c(F)cccc5c4n3)cc2)nc2ccccc21 [Ex-86, 5-amino-7-fluoro-2-(4-((1-methyl-1H-benzo[d]imidazol-2-yl)carbamoyl)benzyl)imidazo[1,2-c]quinazolin-6-ium formate] | 44
COc1cccc2c1nc(N)n1cc(CN3CCc4ccc(-c5ccc(F)c(F)c5)cc4C3)nc21 [Ex-135, 2-((7-(3,4-difluorophenyl)-3,4-dihydroisoquinolin-2(1H)-yl)methyl)-7-methoxyimidazo[1,2-c]quinazolin-5-amine] | 10.4
COc1cccc2c1nc(N)n1cc(Cc3cccnc3N3CCOCC3)nc21 [Ex-43, 7-methoxy-2-((2-morpholinopyridin-3-yl)methyl)imidazo[1,2-c]quinazolin-5-amine] | 5.2
Nc1nc2c(F)cccc2c2nc(CN3Cc4ccc(Br)cc4C3)cn12 [Ex-126, 2-((5-bromoisoindolin-2-yl)methyl)-7-fluoroimidazo[1,2-c]quinazolin-5-amine] | 38
Nc1nc2c(F)cccc2c2nc(CCN3CCN(c4ccccn4)CC3)cn12 [Ex-138] | 28
Nc1nc2ccccc2c2nc(-c3ccc(Br)cc3)cn12 [Ex-104, 2-(4-bromophenyl)imidazo[1,2-c]quinazolin-5-amine] | 407
Nc1nc2c(F)cccc2c2nc(Cc3ccc(-c4nnc(CN5CCOCC5)o4)cc3)cn12 [Ex-91, 7-fluoro-2-(4-(5-(morpholinomethyl)-1,3,4-oxadiazol-2-yl)benzyl)imidazo[1,2-c]quinazolin-5-amine] | 65
COc1cccc2c1nc(N)n1cc(Cc3cccnc3F)nc21 [Ex-42, 2-((2-fluoropyridin-3-yl)methyl)-7-methoxyimidazo[1,2-c]quinazolin-5-amine] | 2.8
COc1ccc2nc(N)n3cc(Cc4ccccc4)nc3c2c1 [Ex-04, 2-benzyl-9-methoxyimidazo[1,2-c]quinazolin-5-amine] | 89.6
Nc1nc2c(F)cccc2c2nc(-c3ccccc3)cn12 [Ex-106, 7-fluoro-2-phenylimidazo[1,2-c]quinazolin-5-amine] | 7.1
COc1cccc2c1nc(N)n1cc(Cc3c(F)cccc3-c3ccc(C(F)(F)F)nc3)nc21 [Ex-79, 2-(2-fluoro-6-(6-(trifluoromethyl)pyridin-3-yl)benzyl)-7-methoxyimidazo[1,2-c]quinazolin-5-amine] | 2.4
Nc1nc2c(F)cccc2c2nc(Cc3ccc(-c4ccc(F)cn4)cc3)cn12 [Ex-76, 7-fluoro-2-(4-(5-fluoropyridin-yl)benzyl)imidazo[1,2-c]quinazolin-5-amine] | 10
Nc1nc2cccc(F)c2c2nc(Cc3ccccc3)cn12 [Ex-09, 2-benzyl-10-fluoroimidazo[1,2-c]quinazolin-5-amine] | 6.3
Nc1nc2c(F)cccc2c2nc(Cn3cc(-c4ccc(-c5cccnc5)cc4)nn3)cn12 [Ex-98, 7-fluoro-2-((4-(4-(pyridin-3-yl)phenyl)-1H-1,2,3-triazol-1-yl)methyl)imidazo[1,2-c)quinazolin-5-amine] | 6.7
COc1cccc2c1nc(N)n1cc(Cc3cc(C(F)(F)F)ccc3N3CCOCC3)nc21 [Ex-30, 7-methoxy-2-(2-morpholino-5-(trifluoromethyl)benzyl)imidazo[1,2-c]quinazolin-5-amine] | 38

Second part, the compound after the results:

Ki [nM] | SMILES
6.6 | COc1cccc2c1nc(N)n1cc(C(=O)N3CCC(F)(F)C3)nc21 [Ex-221, (5-amino-7-methoxyimidazo[1,2-c]quinazolin-2-yl)(3,3-difluoropyrrolidin-1-yl)methanone]
56 | COc1cccc(CN2CCC(Cc3cn4c(N)nc5c(F)cccc5c4n3)CC2)c1 [Ex-310, 7-fluoro-2-((1-(3-methoxybenzyl)-piperidin-4-yl)-methyl)imidazo-[1,2-c]quinazolin-5-amine]
12 | Nc1nc2c(F)cccc2c2nc(C(=O)NCc3ccccc3N3CCN(CCCO)CC3)cn12 [Ex-271, 5-amino-7-fluoro-N-(2-(4-(3-hydroxypropyl)-piperazin-1-yl)benzyl)-imidazo[1,2-c]-quinazoline-2-carboxamide]
100 | Nc1nc2c(F)cccc2c2nc(C(=O)N3CCC4(CCCNC4)CC3)cn12 [Ex-270, (5-amino-7-fluoroimidazo[1,2-c]quinazolin-2-yl)(2,9-diazaspiro[5.5]undecan-9-yl)methanone]
55 | CC(=O)Nc1ccc2c(c1)CCN(C(=O)c1cn3c(N)nc4c(F)cccc4c3n1)C2 [Ex-288, N-(2-(5-amino-7-fluoroimidazo[1,2-c]quinazoline-2-carbonyl)-1,2,3,4-tetrahydroisoquinolin-6-yl)acetamide]
20 | COc1cccc2c1nc(N)n1cc(C(=O)N3CCCC(F)C3)nc21 (stereo not drawn) [Ex-171, (5-amino-7-methoxyimidazo[1,2-c]quinazolin-2-yl)(3-fluoropiperidin-1-yl)methanone]
35 | COc1cccc2c1nc(N)n1cc(C(=O)N3C[C@@H]4C[C@H]3CO4)nc21 [Ex-225, (5-amino-7-methoxyimidazo[1,2-c]quinazolin-2-yl)((1S,4S)-2-oxa-5-azabicyclo[2.2.1]heptan-5-yl)methanone]
13 | COc1cccc2c1nc(N)n1cc(C(=O)N3CCCC(F)(F)C3)nc21 [Ex-241, (5-amino-7-methoxyimidazo[1,2-c]quinazolin-2-yl)(3,3-difluoropiperidin-1-yl)methanone]
130 | Cc1cc(Cc2cn3c(N)nc4c(-c5c(C)noc5C)cccc4c3n2)ccn1 [Ex-155, 7-(3,5-dimethylisoxazol-4-yl)-2-((2-methylpyridin-4-yl)methyl)imidazo[1,2-c]quinazolin-5-amine]
43 | N#Cc1ccc(N2CCC3(CCN(C(=O)c4cn5c(N)nc6c(F)cccc6c5n4)C3)C2)c(F)c1 (stereo not drawn) [Ex-275, 4-(7-(5-amino-7-fluoroimidazo[1,2-c]quinazoline-2-carbonyl)-2,7-diazaspiro[4.4]nonan-2-yl)-3-fluorobenzonitrile]
2.6 | COc1cccc2c1nc(N)n1cc(C(=O)N3CCC4(CC3)OCCC4(C)C)nc21 [Ex-234, (5-amino-7-methoxyimidazo[1,2-c]quinazolin-2-yl)(4,4-dimethyl-1-oxa-8-azaspiro[4.5]decan-8-yl)methanone]
21 | CCN(CC)C(=O)C1CCCN(C(=O)c2cn3c(N)nc4c(OC)cccc4c3n2)C1 (stereo not drawn) [Ex-194, 1-(5-amino-7-methoxyimidazo[1,2-c]quinazoline-2-carbonyl)-N,N-diethylpiperidine-3-carboxamide]
210 | COc1cccc2c1nc(N)n1cc(C(=O)N3CC(C)(C)OC(C)(C)C3)nc21 [Ex-223, (5-amino-7-methoxyimidazo[1,2-c]quinazolin-2-yl)(2,2,6,6-tetramethylmorpholino) methanone]
34 | COc1cccc2c1nc(N)n1cc(C(=O)N3CCCC(OC)C3)nc21 (stereo not drawn) [Ex-169, (5-amino-7-methoxyimidazo[1,2-c]quinazolin-2-yl)(3-methoxypiperidin-1-yl)methanone]
710 | Nc1nc2c(F)cccc2c2nc(C(=O)N3CCC4(CCNC4)CC3)cn12 [Ex-267, (5-amino-7-fluoroimidazo[1,2-c]quinazolin-2-yl)(2,8-diazaspiro[4.5]decan-8-yl)methanone]
33 | Nc1nc2c(F)cccc2c2nc(C(=O)N3CCN4CCCC[C@@H]4C3)cn12 [Ex-284, (R)-(5-amino-7-fluoroimidazo[1,2-c]quinazolin-2-yl)(octahydro-2H-pyrido[1,2-a]pyrazin-2-yl)methanone]
21 | Nc1nc2c(F)cccc2c2nc(C(=O)NCc3ccccc3CN3CCN(c4ccccn4)CC3)cn12 [Ex-246, 5-amino-7-fluoro-N-(2-((4-(pyridin-2-yl)piperazin-1-yl)methyl)benzyl)imidazo[1,2-c]quinazoline-2-carboxamide]
126 | COc1cccc2c1nc(N)n1cc(C(=O)N3CCOC[C@H]3C)nc21 [Ex-183, (R)-(5-amino-7-methoxyimidazo[1,2-c]quinazolin-2-yl)(3-methylmorpholino) methanone]
21 | COc1cccc2c1nc(N)n1cc(C(=O)N3C[C@@H](F)[C@H](F)C3)nc21 [Ex-175, (5-amino-7-methoxyimidazo[1,2-c]quinazolin-2-yl)((3R,4R)-3,4-difluoropyrrolidin-1-yl)methanone]
